In patent US20240182415A1, “ACETAL, KETAL, AND […] OF PSILOCIN, PROCESSES FOR THE PREPARATION THEREOF, AND METHODS OF USE” (Invyxis, Inc., priority 2022, published 2024):
Read-outs that look alike come from different tables or passages of the source.

How the values were obtained:
[1] = target: human serotonin 5HT2A receptor (Homo sapiens, UniProt P28223); assay: 5HT2A receptor radioligand displacement assay; settings: displacement of [3H]-ketanserin or [3H]-LSD, 5HT2A membrane from HEK293
[2] = Compound stability in fasted state simulated gastric fluid (FaSSGF); format: in vitro ADME; settings: 37° C., 60 min vs T0
Description: Fasted state simulated gastric fluid (FaSSGF). FaSSGF was prepared according to the manufacturer instructions (Biorelevant, UK). Test compounds (2 μL of 200 μM solution) were added to a 96-well plate containing 198 μL FaSSGF per well. The mixture was incubation in a thermomixer at 37° C. for 60 min. Sample aliquots were removed (40 μL, from T0 and 60 min.) and quenched with acetonitrile containing 0.5 μM glyburide (IS), and the supernatant collected by centrifugation (2500 rpm, 15 min.). LC-MS was performed using an Agilent MSD (electrospray in positive ionization) equipped with a Kinetic C18 reverse-column. The percent of test compound remaining was calculated using the ratio of the peak area of intact test compound at 60 min. over T0. The percent of psilocin release was calculated by comparing the peak area of psilocin at 60 min, (for test compound) vs. peak area at T0 (2 μM psilocin).

[3] = Compound stability, IP-One incubation; format: in vitro ADME; settings: IP-One stimulation medium on CHO-K1 cells expressing 5-HT2A, 2 μM, 60 min vs T0, 37° C.
Description: IP-One incubation. CHO-K1 cells expressing recombinant Serotonin receptor 5-HT2A (Perkin Elmer, Waltham, MA), were seeded in 96-well plates (˜80,000 cells/well) and treated with 28 μL (per well) of stimulation medium (IP-One HTRF® kit) containing test compounds (2 μM) for 1 hr in a CO2 incubator (5%) at 37° C. The cell-treated medium from 3 wells were pooled together to provide 40 μL for LC-MS analysis. Aliquots for each compound were collected at time zero (To, 100% intact test compound) and 60-min. The incubated medium (40 μL) was quenched with 120 μL of acetonitrile containing 0.5 μM glyburide (IS), and the supernatant was collected by centrifugation (2500 rpm, 15 min.). LC-MS was performed using an Agilent MSD (electrospray in positive ionization) equipped with a Kinetic C18 reverse-column. The percent of test compound remaining is calculated using the ratio of the peak areas of intact test compound at 60 min. over T0. The percent of psilocin release is calculated by comparing the peak area of psilocin at 60 min. (for test compound) vs. peak area at T0 (2 μM psilocin). Results are summarized in Table 1, (rel to % parent detected; and/or % psilocin detected).

[4] = Single-dose oral pharmacokinetics in mice (plasma and brain); format: in vivo, C57BL6 mice; settings: PO 3.0 mg/kg
Description: The single-dose pharmacokinetics of test compounds were analyzed relative to control (psilocin) in C57BL6 mice via oral (PO) administration. Test compound was dissolved in DMSO and transferred to a 15-mL tube, followed by addition of Tween-80, PEG-400, and water to final volume. The resulting formulation (0.3 mg/mL compound, in DMSO (1%), Tween-80 (5%), and PEG-400 (25%) in water (69%)) was vortexed for 2 min. and mixed by inversion.
Male C57BL6 mice (3× per compound, (at a weight ˜20 g)) received a single dose (oral) of test compound at 3.0 mg/kg. Blood samples were collected pre-dose and at 0.083, 0.25, 0.5, 1, 2, 4, 8, 24-hour post-dose to yield approximately 20 μL of pooled plasma (3× mice) per time point. Brain tissues were collected at 2- and 8-hr post-dose. Brain was flushed with saline solution using a perfusion needle through the ascending aorta of the ventricle to remove any remaining blood prior to collection. Plasma and brain homogenate samples were stored at −80° C. prior to extraction for LC-MS/MS analysis.
Samples were analyzed by LC-MS/MS to quantify the amounts of test compound and control (psilocin). The calculation of the pharmacokinetic (PK) parameters (AUCt, AUCinf, Cmax, Tmax, T1/2, and Kel) can be performed using a non-compartmental analysis (trapezoidal method).

Sequence of human serotonin 5HT2A receptor (P28223 whole entry): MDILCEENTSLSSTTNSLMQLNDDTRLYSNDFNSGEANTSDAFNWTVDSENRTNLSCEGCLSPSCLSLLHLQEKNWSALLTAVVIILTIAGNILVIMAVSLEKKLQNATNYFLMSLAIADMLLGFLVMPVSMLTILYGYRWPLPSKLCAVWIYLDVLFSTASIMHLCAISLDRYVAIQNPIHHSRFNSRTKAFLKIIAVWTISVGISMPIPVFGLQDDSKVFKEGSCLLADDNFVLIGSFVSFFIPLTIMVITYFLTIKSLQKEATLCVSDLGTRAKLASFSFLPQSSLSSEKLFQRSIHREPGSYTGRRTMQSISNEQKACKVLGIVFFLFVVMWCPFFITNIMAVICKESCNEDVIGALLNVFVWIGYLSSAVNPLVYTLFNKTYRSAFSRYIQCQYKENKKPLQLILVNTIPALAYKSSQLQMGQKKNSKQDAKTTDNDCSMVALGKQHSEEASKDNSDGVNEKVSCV

Compound | Displacement activity relative to psilocin [1] | % parent compound [3] | also measured
COC(C)Oc1cccc2[nH]cc(CCN(C)C)c12 (centres unmarked) [drawing 97] | ++ | – | –
CCOCOc1cccc2[nH]cc(CCN(C)C)c12 [drawing 91] | – | – | % parent compound [2]: 97%
COC(C)n1cc(CCN(C)C)c2c(O)cccc21 (centres unmarked) [drawing 98] | + | – | –
COCCOCn1cc(CCN(C)C)c2c(OCOC)cccc21 [drawing 89] | – | 94.7% | –
COC(C)n1cc(CCN(C)C)c2c(O)cccc21 (centres unmarked) [drawing 88] | – | 82.5% | –
COC(C)Oc1cccc2[nH]cc(CCN(C)C)c12 (centres unmarked) [drawing 87] | – | 88.8% | –
COCCOCn1cc(CCN(C)C)c2c(OCOC)cccc21 [drawing 99] | + | – | –
CN(C)CCc1c[nH]c2cccc(O)c12 [Psilocin, 4-hydroxy-N,N-dimethyltryptamine] | ++ | 87.4% | % parent compound [2]: 72.2%; mean brain/plasma (B/P) ratio ([4]; 2-h post-dose, with estimated plasma concentration of 5 ng/mL): 11.2±4.3; psilocin in the brain at 8-h post-dose ([4]; 8-h post-dose): No psilocin in the brain was detected; Parent PK [brain] 2 h ([4]; brain, 2 h post-dose, parent compound): 54 ng/mL; Cmax ([4]; male, C57BL6, mouse, plasma, estimated, based on other pharmacokinetic data, read-out: Parent PK Cmax (estimated psilocin plasma concentration)): 5 ng/mL
CCOCOc1cccc2[nH]cc(CCN(C)C)c12 [drawing 96] | +++ | – | –
CCOCOc1cccc2[nH]cc(CCN(C)C)c12 [drawing 86] | – | 91.9% | –
COC(C)Oc1cccc2[nH]cc(CCN(C)C)c12 (centres unmarked) [Test compound A, 2-(4-(1-methoxyethoxy)-1H-indol-3-yl)-N,N-dimethylethan-1-amine] | – | – | concentration at 2 h ([4]; male, C57BL6, mouse, brain, 2 h post-dose, parent compound, read-out: Parent PK [brain] 2 h): 0.6 ng/mL; AUC ([4]; male, C57BL6, mouse, plasma, parent compound, read-out: Parent PK AUC): 51.4 ng·h/mL; Cmax ([4]; male, C57BL6, mouse, plasma, parent compound, read-out: Parent PK Cmax): 21.6 ng/mL
COCCOCn1cc(CCN(C)C)c2c(OCOC)cccc21 [drawing 94] | – | – | % parent compound [2]: 20%
